From paper PMC8478151 (European journal of pharmacology, 2021)
Structures can show the parent of a compound that is named as a salt.

Target: α7 nicotinic acetylcholine receptor (Homo sapiens, UniProt P36544)
Assay type: cell-based

Sequence of α7 nicotinic acetylcholine receptor (P36544 23-502): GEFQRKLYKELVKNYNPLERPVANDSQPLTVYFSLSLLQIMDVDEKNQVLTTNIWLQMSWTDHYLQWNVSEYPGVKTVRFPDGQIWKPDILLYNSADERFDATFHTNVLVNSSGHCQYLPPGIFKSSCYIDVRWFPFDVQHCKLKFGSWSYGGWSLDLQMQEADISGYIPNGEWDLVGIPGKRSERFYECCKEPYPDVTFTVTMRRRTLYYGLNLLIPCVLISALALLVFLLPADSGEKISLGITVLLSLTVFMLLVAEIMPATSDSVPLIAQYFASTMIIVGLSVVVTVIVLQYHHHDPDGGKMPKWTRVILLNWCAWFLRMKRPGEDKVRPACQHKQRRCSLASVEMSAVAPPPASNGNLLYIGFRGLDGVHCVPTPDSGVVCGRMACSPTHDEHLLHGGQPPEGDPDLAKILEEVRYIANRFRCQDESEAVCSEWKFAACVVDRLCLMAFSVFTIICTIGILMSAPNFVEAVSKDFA

## O=C(c1ccc(-c2cccc(C(F)(F)F)c2)o1)N1CCN2CCC1CC2 [NS6740, 1,4-diazabicyclo[3.2.2]nonan-4-yl(5-(3-(trifluoromethyl)-phenyl)-furan-2-yl)methanone hydrochloride]
  EC50: 420 nM
